From a compilation of properties of binary mixtures (doi:10.1007/s10953-013-9991-z)

Assay: xn = mol fraction of the nth substance listed
Settings: 101 kPa

CN(C)C=O + CC[n+]1ccn(C)c1.F[B-](F)(F)F
x1 = 1
Settings	speed of sound [m/s]
293.15 K	1477.8
303.15 K	1440.3
308.15 K	1421

CNC=O + CC[n+]1ccn(C)c1.F[B-](F)(F)F
speed of sound [m/s]
Settings	293.15 K	298.15 K	303.15 K	308.15 K
x1 = 0.0661	1633.3	–	–	–
x1 = 0.0886	1633.3	1622.4	1611.3	1600.3
x1 = 0.1287	1633	1622.1	1610.8	–
x1 = 0.1757	1631.7	1619.5	1607.8	1596.1
x1 = 0.2258	1628	1615.8	1603.3	1590.7
x1 = 0.2783	1622.6	1609	1595.9	1583.5
x1 = 0.3287	–	1601.7	–	–
x1 = 0.3729	1608.1	1593	–	–
x1 = 0.4259	1597.9	1582.3	1567.3	1552.1
x1 = 0.4766	1585.5	1569.5	1554.2	1539.1
x1 = 0.5291	1572.2	–	1540.2	1524.6
x1 = 0.5749	1559.2	1543.2	–	1511.9
x1 = 0.6252	1543.5	1527.8	1513	1496.9
x1 = 0.6773	–	1511.9	1496.9	1480.7
x1 = 0.7281	1511.5	–	1482	–
x1 = 0.7744	1496.7	–	1467.9	1452.1
x1 = 0.8271	1481.1	–	1453	1437
x1 = 0.8782	1467.7	1453.9	–	–
x1 = 1	–	1431.9	1417.7	–

CC[n+]1ccn(C)c1.F[B-](F)(F)F + CN(C)C=O
speed of sound [m/s]
Settings	293.15 K	298.15 K	303.15 K	308.15 K
x2 = 0	1631	1619.4	1607.6	–
x2 = 0.0903	1625.1	1611.5	1598	1586
x2 = 0.1257	–	1609.6	1596	1583.1
x2 = 0.1717	1622.4	–	1594	–
x2 = 0.2275	1621.4	1606.7	1591.9	1577.6
x2 = 0.2781	1620.2	–	1590.4	1574.8
x2 = 0.3276	1618.1	1603.9	1589.2	1572.2
x2 = 0.3781	1615.6	1601	1586.1	1569.6
x2 = 0.4227	1612.9	1598.5	1583.6	1565.4
x2 = 0.4757	1607.8	–	1577.9	1560.5
x2 = 0.5258	–	1586.4	1571.3	1553.1
x2 = 0.5697	1593.8	1579.9	–	–
x2 = 0.6261	1582.9	1568.1	1552.6	1534.5
x2 = 0.6758	–	–	1541.3	1523.2
x2 = 0.7291	1558.1	–	1526.5	1508.1
x2 = 0.769	1546.4	–	1513.9	1496.7
x2 = 0.8268	1529.4	1512.2	1495.4	1478
x2 = 0.8789	–	1495.6	1478.4	1460.1

CC[n+]1ccn(C)c1.F[B-](F)(F)F + CNC=O
x2 = 0
Settings	speed of sound [m/s]
293.15 K	1631
298.15 K	1619.4
303.15 K	1607.6
308.15 K	1596.3
